The values that follow come from ChEMBL document CHEMBL5579851, “Synthesis and antifungal evaluation of novel triazole derivatives bearing a pyrazole-methoxyl moiety” (Eur J Med Chem, 2024).

Values after ≈ are worked out from the molar mass of the structure shown. Active and inactive are the calls of the source. No cut-off for these calls is given here. Some results are limits rather than exact numbers.

Series [1] has as its system Saccharomyces cerevisiae. Put plainly: Antifungal activity against recombinant Saccharomyces cerevisiae Y2300 overexpressing ScErg11 assessed as inhibition of fungal growth incubated for 48 hrs by CLSI based broth microdilution assay. It counts as functional.
Series [2] has as its target T1, Lanosterol 14-alpha demethylase (Candida albicans (strain SC5314 / ATCC MYA-2876) (Yeast), UniProt P10613). As to the kind of experiment: Inhibition of CYP51 in Candida albicans SC5314 assessed as eburicol level at 0.0625 ug/ml after 8 hrs by GC-MS analysis relative to control. The conditions noted are these: at 0.0625 µg/mL. Also noted: scale not given: the % may be the effect or the level left.

For a further series, the system named is Nakaseomyces glabratus. As to the kind of experiment: Antifungal activity against Candida glabrata 537 assessed as inhibition of fungal growth incubated for 48 hrs by CLSI based broth microdilution assay. The format is functional. (In general: Dilution methods test growth across graded concentrations, often in twofold steps.)
For the next series, the system named is Candida parapsilosis. As to the kind of experiment: Antifungal activity against Candida parapsilosis 22019 assessed as inhibition of fungal growth at 0.125 ug/ml measured up to 48 hrs by TECAN plate reader analysis. The format is functional, organism-based. To be noted: dose 0.125 µg/ml.
In series [3] the test system is Saccharomyces cerevisiae. Put plainly: Antifungal activity against recombinant Saccharomyces cerevisiae Y2769 overexpressing CauErg11 K143R mutant assessed as inhibition of fungal growth incubated for 48 hrs by CLSI based broth microdilution assay. It counts as functional.
For a further series, the system named is Cryptococcus neoformans. As to the kind of experiment: Antifungal activity against Cryptococcus neoformans 32609 assessed as inhibition of fungal growth incubated for 72 hrs by CLSI based broth microdilution assay. It counts as functional.
Series [4] concerns Saccharomyces cerevisiae. Put plainly: Antifungal activity against recombinant Saccharomyces cerevisiae Y2765 overexpressing CauMdr1 assessed as inhibition of fungal growth incubated for 48 hrs by CLSI based broth microdilution assay. The format is functional.
Series [5] deals with Candida albicans. Put plainly: Antifungal activity against fluconazole-resistant Candida albicans 904 assessed as inhibition of fungal growth incubated for 48 hrs by CLSI based broth microdilution assay. The format is functional.
The subject of series [6] is Candida albicans. Put plainly: Antifungal activity against Candida albicans 10231 assessed as inhibition of fungal growth incubated for 48 hrs by CLSI based broth microdilution assay. It counts as functional.
The target in series [7] is T1, Lanosterol 14-alpha demethylase. As to the kind of experiment: Inhibition of CYP51 in Candida albicans SC5314 assessed as 14alpha-methylfecosterol level at 0.0625 ug/ml after 8 hrs by GC-MS analysis relative to control. The conditions noted are these: at 0.0625 µg/mL. Also noted: scale not given: the % may be the effect or the level left.
In series [8] the test system is Saccharomyces cerevisiae. Put plainly: Antifungal activity against recombinant Saccharomyces cerevisiae Y2374 overexpressing CgErg11 assessed as inhibition of fungal growth incubated for 48 hrs by CLSI based broth microdilution assay. It counts as functional.
Series [9] has as its system Candida albicans. Put plainly: Antibiofilm activity against Candida albicans SC5314 assessed as increase in matured biofilm distruption at 64 ug/ml incubated for 24 hrs by XTT assay relative to control. The format is functional. The conditions noted are these: dose 64 µg/ml. (In general: Tetrazolium dyes change colour on reduction, which living cells bring about.)
Series [10] relates to Saccharomyces cerevisiae. Put plainly: Antifungal activity against recombinant Saccharomyces cerevisiae Y2411 overexpressing ScErg11 assessed as inhibition of fungal growth incubated for 48 hrs by CLSI based broth microdilution assay. It counts as functional.

T1 sequence (P10613 whole entry): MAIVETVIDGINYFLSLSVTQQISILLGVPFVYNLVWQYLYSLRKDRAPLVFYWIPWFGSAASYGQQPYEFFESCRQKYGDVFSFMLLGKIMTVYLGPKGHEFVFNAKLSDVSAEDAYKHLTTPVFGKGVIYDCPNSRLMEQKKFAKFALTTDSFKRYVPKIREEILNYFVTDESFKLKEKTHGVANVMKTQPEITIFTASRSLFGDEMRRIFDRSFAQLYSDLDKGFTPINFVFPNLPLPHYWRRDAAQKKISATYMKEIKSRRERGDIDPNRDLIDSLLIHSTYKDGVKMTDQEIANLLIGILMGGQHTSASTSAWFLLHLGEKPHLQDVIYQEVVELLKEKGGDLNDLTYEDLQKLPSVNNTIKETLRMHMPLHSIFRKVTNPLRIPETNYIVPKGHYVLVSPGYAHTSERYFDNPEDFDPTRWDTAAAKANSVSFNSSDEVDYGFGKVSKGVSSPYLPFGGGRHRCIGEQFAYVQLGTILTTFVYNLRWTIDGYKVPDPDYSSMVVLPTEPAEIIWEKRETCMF

In general, MIC refers to the least concentration at which growth counts as inhibited. On to `C[C@@H](OCc1ccn(Cc2ccc(Cl)cc2)n1)[C@](O)(Cn1cncn1)c1ccc(F)cc1F`, for which the MIC with Saccharomyces cerevisiae [1] was 0.0313 µg/mL; in the series with Nakaseomyces glabratus, no more than 0.125 µg/mL; in the series on Saccharomyces cerevisiae [3] it was 8 ng/mL; in the series with Cryptococcus neoformans, no more than 0.125 µg/mL; in the series with Saccharomyces cerevisiae [4], 0.063 µg/mL; in the series on Candida albicans [5], 8 µg/mL (≈ 16.9 µM). Moreover, the results for the MIC in the series on Candida albicans [6], in the series with Saccharomyces cerevisiae [8] and in the series on Saccharomyces cerevisiae [10] were no more than 0.125 µg/mL, 8 ng/mL and 8 ng/mL, respectively. Besides, the values for the Activity (in [2]; in series [7]; with Candida albicans [9]) were ~ 20%, ~ 20% and 57.3%, respectively. Also, in the series on Candida parapsilosis, the inhibition result is “Active”.
